# According to patent publication US11584744B2 (UNIVERSITY OF WASHINGTON, priority 2017, dated 2023):
# Several values for one entry are separate records, joined by “and”; a condition that tells them apart may be missing. Identical values can stand only once. Like-named read-outs stand apart in the source and are kept apart here.
# Key:
# T. brucei = T. brucei growth inhibition; type: cell-based, Trypanosoma brucei; settings: read-out: (D) T. brucei EC50
# MetRS (C. parvum) = MetRS (C. parvum) (Cryptosporidium parvum, UniProt Q5CVN0); test: MetRS (C. parvum) enzyme inhibition; type: biochemical; settings: read-out: (C) MetRS (C. parvum) IC50
# Chain of MetRS (C. parvum) (Q5CVN0 entry or part of it): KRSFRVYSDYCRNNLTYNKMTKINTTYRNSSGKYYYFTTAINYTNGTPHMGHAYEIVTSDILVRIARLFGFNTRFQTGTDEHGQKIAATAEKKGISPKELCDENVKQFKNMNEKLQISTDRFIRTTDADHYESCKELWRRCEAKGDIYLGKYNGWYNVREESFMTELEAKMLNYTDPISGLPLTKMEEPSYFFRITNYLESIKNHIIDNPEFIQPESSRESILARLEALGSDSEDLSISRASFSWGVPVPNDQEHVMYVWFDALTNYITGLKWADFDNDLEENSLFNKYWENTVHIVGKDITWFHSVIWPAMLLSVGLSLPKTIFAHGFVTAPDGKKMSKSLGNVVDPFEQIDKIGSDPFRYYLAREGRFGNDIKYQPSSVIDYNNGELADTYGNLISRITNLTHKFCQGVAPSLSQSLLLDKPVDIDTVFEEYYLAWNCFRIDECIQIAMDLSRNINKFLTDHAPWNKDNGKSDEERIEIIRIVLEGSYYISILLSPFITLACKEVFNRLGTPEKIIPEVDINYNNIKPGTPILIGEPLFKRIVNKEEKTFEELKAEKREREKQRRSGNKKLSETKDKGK
# [1] = test system: S. aureus MSSA (ATCC 29213); test: MIC susceptibility testing; type: cell-based, Staphylococcus aureus; settings: S. aureus ATCC 29213; for MIC: Staphylococcus aureus, read-out: (F) S. aureus (ATCC 29213) MIC
# T. cruzi = T. cruzi growth inhibition; type: cell-based, Trypanosoma cruzi; settings: read-out: (E) T. cruzi EC50
# [2] = biological target: recombinant S. aureus MetRS enzyme (Staphylococcus aureus, UniProt A0A0H2XID2); test: Inhibition of SaMetRS, ATP depletion assay; type: biochemical; settings: read-out: (B) MetRS (S. aureus) IC50
# Experimental: Production of recombinant S. aureus MetRSs. The SaMetRS gene (UniProtKB—A0A0H2XID2) was PCR amplified (Sense 5′-[…]-3′ (SEQ ID NO: 1) and Antisense 5′-[…]-3′ (SEQ ID NO:2)) from genomic DNA isolated from S. aureus (ATCC 29213) cultures. The PCR product was then cloned into the AVA0421 plasmid and sequence verified. The expression of recombinant protein was performed as previously described. The N-terminal 6-His fusion proteins were purified by nickel affinity chromatography followed by size exclusion gel chromatography (Superdex 75 26/60; GE Biosciences, Piscataway, N.J.).
# Enzyme assays. Inhibition of SaMetRS was measured using the ATP depletion assay as previously described with some modifications. Compounds were pre-incubated for 15 minutes at room temperature in a 96-well plate with 400 μg/mL bulk E. coli tRNA, 25 nM SaMetRS, 0.1 U/mL pyrophosphatase, 0.2 mM spermine, 0.1 mg/mL bovine serum albumin, 2.5 mM dithiothreitol, 25 mM HEPES-KOH pH 7.9, 10 mM MgCl2, 50 mM KCl, and 2% DMSO. Reagents were purchased from Sigma-Aldrich or Roche. The reaction was started with the addition of 150 nM ATP and 20 μM L-methionine and after 120 minute incubation was stopped by the addition of an equal volume (50 μL) of Kinase-Glo® (Promega). Percent inhibition=100×(test compound−AVG low control)/(AVG high control−AVG low control) where the low control is all reagents except the compound and the high control is all reagents except the compounds and L-methionine. IC50 values were calculated by non-linear regression, sigmoidal-dose response, in Prism 3.0.
# MetRS (T. brucei) = biological target: T1, MetRS (T. brucei) (Trypanosoma brucei brucei, UniProt Q38C91); test: MetRS (T. brucei) enzyme inhibition; type: biochemical
# T1 sequence (Q38C91 1-773): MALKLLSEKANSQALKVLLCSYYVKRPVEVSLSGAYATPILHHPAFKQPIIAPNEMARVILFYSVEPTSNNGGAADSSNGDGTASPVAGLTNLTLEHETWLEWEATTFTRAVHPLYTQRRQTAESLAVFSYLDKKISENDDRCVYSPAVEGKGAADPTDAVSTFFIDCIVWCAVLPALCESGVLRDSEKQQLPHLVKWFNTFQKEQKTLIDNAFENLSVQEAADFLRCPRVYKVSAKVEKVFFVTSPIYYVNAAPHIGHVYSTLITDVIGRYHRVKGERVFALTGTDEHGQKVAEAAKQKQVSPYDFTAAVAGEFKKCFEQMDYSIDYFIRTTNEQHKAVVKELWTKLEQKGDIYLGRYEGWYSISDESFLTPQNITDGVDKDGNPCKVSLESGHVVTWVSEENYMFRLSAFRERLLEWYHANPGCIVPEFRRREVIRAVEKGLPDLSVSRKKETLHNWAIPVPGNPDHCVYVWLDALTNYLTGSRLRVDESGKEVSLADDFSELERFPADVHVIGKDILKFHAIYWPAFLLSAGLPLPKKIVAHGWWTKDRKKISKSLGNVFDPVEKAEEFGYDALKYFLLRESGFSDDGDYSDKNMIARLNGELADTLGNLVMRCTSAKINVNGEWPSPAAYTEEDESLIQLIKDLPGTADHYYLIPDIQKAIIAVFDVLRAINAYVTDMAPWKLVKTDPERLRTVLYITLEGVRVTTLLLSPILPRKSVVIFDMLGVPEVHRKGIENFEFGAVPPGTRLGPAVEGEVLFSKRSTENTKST
# C. parvum = C. parvum growth inhibition; type: cell-based, Cryptosporidium parvum; settings: Cryptosporidium parvum; read-out: (J) C. parvum EC50
# [3] = test system: S. aureus MRSA (ATCC 33591); test: MIC susceptibility testing; type: cell-based, Staphylococcus aureus; settings: Staphylococcus aureus, MRSA ATCC33591; read-out: (G) MRSA (ATCC33591) MIC
# Method in brief: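 CLSI broth microdilution in triplicate, 5×10^5 CFU/mL final, ≤0.5% DMSO; MHB for S. aureus, CA-MHB for E. coli and E. faecium, CA-MHB plus 3% laked horse blood for S. pyogenes (5% CO2).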
# [4] = test system: E. faecium VRE (ATCC 51559); test: MIC susceptibility testing; type: cell-based, Enterococcus faecium; settings: E. faecium ATCC 51559; for MIC: Enterococcus faecium, read-out: (I) E. faecium (ATCC 51559) MIC
# Source text: Media and culture conditions. Mueller Hinton broth (MHB), cation adjusted Mueller Hinton broth (CA-MHB), and Brain Heart Infusion broth (BHI) were purchased from Becton Dickinson (Franklin Lakes, N.J.). Tryptic soy agar (TSA) plates, TSA with 5% sheep blood plates, and CA-MHB with 3% laked horse blood were purchased from Remel (San Diego, Calif.). MHB was used to assay all Staphylococcus aureus strains. CA-MHB was used for Staphylococcus epidermidis, Enterococcus faecalis, Enterococcus faecium, Escherichia coli, and Pseudomonas aeruginosa. CA-MHB supplemented with 3% laked horse blood was used for Streptococcus pneumoniae and Streptococcus pyogenes. Staphylococcus, Enterococcus, Escherichia, and Pseudomonas strains were cultured at 37° C. with ambient air. Streptococcus strains were cultured in 37° C. with 5% CO2. Separate conditions for radiolabeled precursor uptake assays are described below.
# Susceptibility testing: Minimum inhibitory concentration (MIC) determinations were performed in triplicate in 96-well round bottom microtiter plates (Corning, Corning N.Y.) as described by the Clinical and Laboratory Standards Institute (CLSI). Serial two-fold dilutions of compounds were added to plates in 50 μL volumes. An additional 50 μL of media containing bacterial cells (1×10^6 CFUs/mL) was then added to each well. Maximum DMSO concentrations were 0.5%. Plates were incubated at 37° C. for at least 18 h before reading the susceptibility result by optical absorbance (OD600) using a BioTek ELx800. The lowest concentration causing ≥90% growth inhibition compared to the untreated control was recorded as the MIC (and also corresponded to the visual MIC). MICs were measured at least twice and the higher value (if different) was recorded herein.
Compound,EC50 (T. brucei; Trypanosoma brucei) [nM],IC50 (MetRS (C. parvum)) [nM],MIC [1] [µg/mL],EC50 (T. cruzi; Trypanosoma cruzi) [nM],IC50 (MetRS (T. brucei)) [nM],EC50 (T. cruzi) [nM],EC50 (C. parvum) [nM],MIC [3] [µg/mL],MIC [4] [µg/mL],(F) S. aureus (ATCC 29213) MIC [1],EC50 (T. brucei) [nM],(I) E. faecium (ATCC 51559) MIC [4] [µg/mL],IC50 [2] [nM]
"CS(=O)(=O)c1nc(Cc2ccc(Cl)cc2Cl)cn1Cc1nc2ccc(F)nc2[nH]1 [Compound 2105, 4-[(2,4-dichlorophenyl)methyl]-1-({5-fluoro-1H-imidazo[4,5-b]pyridin-2-yl}methyl)-2-methanesulfonyl-1H-imidazole]",71.5,109,2.15,867,< 40,–,–,–,–,–,–,–,< 25
"COc1cc(-c2cccc3nc(Cc4nc5nc(F)ccc5[nH]4)cn23)c(Cl)cc1Cl [Compound 2129, 5-(2,4-dichloro-5-methoxyphenyl)-2-({5-fluoro-1H-imidazo[4,5-b]pyridin-2-yl}methyl)imidazo[1,2-a]pyridine]",–,< 40,–,102,< 40,82,–,–,–,–,–,–,< 25
"CCn1c(C(O)c2ccc(Cl)cc2Cl)cn(Cc2nc3nc(Cl)ccc3[nH]2)c1=O (stereo not drawn) [Compound 2204, 1-({5-chloro-1H-imidazo[4,5-b]pyridin-2-yl}methyl)-4-[(2,4-dichlorophenyl)(hydroxy)methyl]-3-ethyl-2,3-dihydro-1H-imidazol-2-one]",6.38,82.5,1.11,366,53,–,1920,0.293,0.167,0.927 µg/mL,–,–,–
"COc1cc(Cl)c(-c2cnn3c2CN(Cc2nc4nc(Cl)ccc4[nH]2)CC3)cc1OC [Compound 2205, 5-chlor0-2-((3-(2-chloro-4,5-dimethoxyphenyl)-6,7-dihydropyrazolo[1,5-a]pyrazin-5(4H)-yl)methyl)-1H-imidazo[4,5-b]pyridine]",12.4,65.2,0.652,109,< 40,–,> 2000,0.265,0.0839,"0.441, μg/ml and 0.450 μg/ml",–,–,–
"CCn1c(Cc2ccc(Cl)cc2Cl)cn(Cc2nc3ccc(Cl)c(C#N)c3[nH]2)c1=O [Compound 2210, 6-chlor0-2-({4-[(2,4-dichlorophenyl)methyl]-3-ethyl-2-oxo-2,3-dihydro-1H-imidazol-1-yl}methyl)-1H-1,3-benzodiazole-7-carbonitrile]",6.72,< 40,0.285,108,< 40,–,> 2000,0.298,0.166,–,–,–,–
"COc1ccc(-c2cccc3c2CN(Cc2nc4nc(Cl)ccc4[nH]2)C3)c(Cl)c1 [Compound 2224, 5-chlor0-2-((4-(2-chloro-4-methoxyphenyl)isoindolin-2-yl)methyl)-1H-imidazo[4,5-b]pyridine]",23.7,< 40,1.07,174,52,–,> 2000,1.17,0.995,1.37 µg/mL,–,–,–

# Further lines, with some results ahead:
EC50 (T. brucei; Trypanosoma brucei) [nM],IC50 (MetRS (C. parvum)) [nM],MIC [1] [µg/mL],EC50 (T. cruzi; Trypanosoma cruzi) [nM],IC50 (MetRS (T. brucei)) [nM],EC50 (T. cruzi) [nM],EC50 (C. parvum) [nM],MIC [3] [µg/mL],MIC [4] [µg/mL],(F) S. aureus (ATCC 29213) MIC [1],EC50 (T. brucei) [nM],(I) E. faecium (ATCC 51559) MIC [4] [µg/mL],Compound,IC50 [2] [nM]
1.73,99.4,0.34,34.7,< 40,45.2,> 2000,0.359,0.172,–,–,–,"CCn1c(C(=O)c2ccc(Cl)cc2Cl)cn(Cc2nc3ccc(Cl)nc3[nH]2)c1=O [Compound 2203, 1-((5-chloro-3H-imidazo[4,5-b]pyridin-2-yl)methyl)-4-(2,4-dichlorobenzoyl)-3-ethyl-1,3-dihydro-2H-imidazol-2-one]",–
< 0.91,50.2,0.493,21.7,< 40,22.1,1170,0.489,0.389,0.590 µg/mL,1.16,0.281,"CC(C)(O)Cn1c(Cc2ccc(Cl)cc2Cl)cn(Cc2nc3ccc(Cl)nc3[nH]2)c1=O [Compound 2211, 1-((5-chloro-3H-imidazo[4,5-b]pyridin-2-yl)methyl)-4-(2,4-dichlorobenzyl)-3-(2-hydroxy-2-methylpropyl)-1,3-dihydro-2H-imidazol-2-one]",–
2.12,< 40,0.422,63.4,< 40,71.3,1910,0.52,0.272,0.574 µg/mL,–,–,"O=c1n(Cc2nc3ccc(Cl)nc3[nH]2)cc(Cc2ccc(Cl)cc2Cl)n1CCO [Compound 2213, 1-({5-chloro-1H-imidazo[4,5-b]pyridin-2-yl}methyl)-4-[(2,4-dichlorophenyl)-methyl]-3-(2-hydroxyethyl)-2,3-dihydro-1H-imidazol-2-one]",–
< 0.91,< 40,0.298,14.8,< 40,25.4,> 2000,0.26,0.272,–,0.46,–,"CCOC(=O)Cn1c(C(=O)c2ccc(Cl)cc2Cl)cn(Cc2nc3ccc(Cl)nc3[nH]2)c1=O [Compound 2215, ethyl 2-[3-({5-chloro-1H-imidazo[4,5-b]pyridin-2-yl}methyl)-5-(2,4-dichlorobenzoyl)-2-oxo-2,3-dihydro-1H-imidazol-1-yl]acetate]",–
